Data: PMC10472371, “Discovery of E2730, a novel selective uncompetitive GAT1 inhibitor, as a candidate for anti‐seizure medication” (Epilepsia Open, 2023)

Legend:
[1] = Accelerating rotarod test in mice (motor coordination); settings: male, ddY, mouse, in vivo, oral, 1 hour before test, read-out: TD50 (95% CI) in mouse rotarod test
Protocol: Motor incoordination is one of the most common AEs associated with the use of ASMs.[9] Therefore, motor coordination was evaluated in mice receiving E2730 to assess if it is a new ASM candidate with a wide margin between therapeutic effects and AEs. E2730 (50–400 mg/kg) or vehicle was orally administered in ddY mice (male, 5 weeks old) 1 hour before the rotarod test, and the latency for mice to fall off the rod was measured. The rod rotation of the rotarod apparatus (Muromachi Kikai) was continuously accelerated from 0 to 40 rpm in a cut‐off time of 180 seconds.

[2] = tested on: 6 Hz-44 mA psychomotor seizure mice; assay: Pharmaco-resistant 6 Hz-44 mA psychomotor seizures in mice; format: in vivo, mouse; settings: Mus musculus; oral, 1 hour before electrostimulation, ddY mice; read-out: ED50 (95% CI), 6 Hz-44 mA psychomotor seizures
Protocol: Psychomotor seizures were stimulated by applying currents (44 mA, 6 Hz, 0.2 millisecond rectangular pulse width, 3‐second duration each) via a corneal electrode (SEN‐7203; Nihon Kohden). E2730 (5–50 mg/kg), levetiracetam (Tokyo Chemical Industry; 20–200 mg/kg), or vehicle was orally administered to ddY mice (male, 5 weeks old; Japan SLC Inc.) 1 hour before electrostimulation. […] Behavioral seizures observed in mice were classified into the following four types: stun, forelimb clonus, twitching of the vibrissae, and Straub‐tail.

Fmr1 KO mice = assay: Audiogenic seizures in Fmr1 knockout mice (fragile X syndrome model); format: in vivo; settings: Mus musculus, oral, 1 hour before audio stimulation, read-out: ED50 (95% CI) for tonic-clonic seizures, audiogenic seizures
Protocol: Fragile X syndrome (FXS) is the most common single‐gene cause of autism spectrum disorder, typically due to mutations in the FMR1 gene; 10–18% of patients with FXS experience seizures.[8] The Fmr1 knockout (KO) mouse is an established animal model for FXS. E2730 (2.5–300 mg/kg) or vehicle was orally administered to Fmr1 KO mice (male, 20–27 days postnatal; Jackson Laboratory) 1 hour prior to drug evaluation. The mice were placed in a sound‐attenuating acoustic chamber and acclimated for 5 minutes and exposed to an audio stimulation (110 dB, 60‐second duration), and the behavior of the stimulated mice was video recorded and monitored for tonic–clonic seizures.

Scn1a+/- mice = assay: Hyperthermia-induced seizures in Scn1a+/- mice (Dravet syndrome model); format: in vivo, mouse
Protocol: Scn1a heterozygous mutant (Scn1a ^+/−) mice, a model of Dravet Syndrome (DS), and the littermate wild‐type (Scn1a ^+/+) mice (male, 24–28 days postnatal; Jackson Laboratory, US) received E2730 (10, 20 mg/kg) or vehicle orally 1 hour before hyperthermia stimulation. A rectal temperature probe (Physitemp, NJ) was fitted at 50 minutes post‐treatment, and mice were acclimated to the probe and test chamber for 10 minutes. At 1‐hour post‐treatment, core body temperature was elevated by a heat lamp connected to a feedback temperature controller (Physitemp) by 0.5°C every 2 minutes until a maximum of 42.5°C was reached. The threshold body temperatures for generalized tonic–clonic seizures were recorded for each mouse. The cut‐off time was set as 180 seconds.

hGAT3 = target: T1, hGAT3 (Homo sapiens, UniProt P48066); assay: [3H]GABA uptake in hGAT3 stably expressing HEK293 cells; format: cell-based; settings: 50 μM [3H]GABA
T1 construct: expressed in transfected cells; host or cells: HEK293
T1 sequence (P48066 1-632): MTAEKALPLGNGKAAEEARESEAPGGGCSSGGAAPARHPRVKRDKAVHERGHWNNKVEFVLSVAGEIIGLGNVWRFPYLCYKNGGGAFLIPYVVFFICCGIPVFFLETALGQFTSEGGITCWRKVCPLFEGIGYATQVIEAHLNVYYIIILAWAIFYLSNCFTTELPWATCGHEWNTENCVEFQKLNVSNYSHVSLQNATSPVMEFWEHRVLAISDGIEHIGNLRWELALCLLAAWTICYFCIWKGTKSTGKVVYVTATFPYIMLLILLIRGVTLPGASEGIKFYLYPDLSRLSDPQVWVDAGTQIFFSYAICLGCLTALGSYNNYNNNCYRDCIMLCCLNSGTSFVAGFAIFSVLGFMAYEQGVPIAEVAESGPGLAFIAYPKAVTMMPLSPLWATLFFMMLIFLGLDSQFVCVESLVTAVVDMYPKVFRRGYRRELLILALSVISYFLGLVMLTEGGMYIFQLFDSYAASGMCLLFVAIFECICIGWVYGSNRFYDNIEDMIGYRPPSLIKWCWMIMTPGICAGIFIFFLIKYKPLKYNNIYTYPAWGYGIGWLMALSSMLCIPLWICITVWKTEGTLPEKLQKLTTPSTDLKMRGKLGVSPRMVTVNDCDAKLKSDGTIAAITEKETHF
Protocol: HEK293 cells stably expressing human GAT1 (hGAT1), GAT2 (hGAT2), GAT3 (hGAT3), or betaine/GABA transporter 1 (hBGT‐1) were plated onto 96‐well microtiter plates at a density of 4.0 × 10^4 cells/well in Dulbecco's Modified Eagle's Medium (DMEM, containing 10% fetal bovine serum, 100 units/mL penicillin, 100 μg/mL streptomycin, 1% non‐essential amino acid solution, and 25 mM HEPES) and incubated overnight at 37°C in a 5% CO2 atmosphere. After washing the cells with Hanks’ balanced salt solution (HBSS, containing 140 mg/L CaCl2, 100 mg/L MgCl2, 20 mM HEPES, and 10 mM NaOH), E2730 (0.0128–1000 μM) was added to the plate. Following the addition of 50 μM [^3H]GABA, cells were incubated for 5 minutes at 37°C in a 5% CO2 atmosphere and then washed with cold HBSS. Washed cells were incubated in a scintillator for 1 hour at room temperature, followed by radioactivity measurements using a liquid scintillation counter.

hGAT1 = target: T2, hGAT1 (Homo sapiens, UniProt P30531); assay: [3H]GABA uptake in hGAT1 cells under different GABA concentrations; format: cell-based; settings: [3H]GABA 0.01-500 μM
T2 construct: expressed in transfected cells; host or cells: HEK293
T2 sequence (P30531 whole entry): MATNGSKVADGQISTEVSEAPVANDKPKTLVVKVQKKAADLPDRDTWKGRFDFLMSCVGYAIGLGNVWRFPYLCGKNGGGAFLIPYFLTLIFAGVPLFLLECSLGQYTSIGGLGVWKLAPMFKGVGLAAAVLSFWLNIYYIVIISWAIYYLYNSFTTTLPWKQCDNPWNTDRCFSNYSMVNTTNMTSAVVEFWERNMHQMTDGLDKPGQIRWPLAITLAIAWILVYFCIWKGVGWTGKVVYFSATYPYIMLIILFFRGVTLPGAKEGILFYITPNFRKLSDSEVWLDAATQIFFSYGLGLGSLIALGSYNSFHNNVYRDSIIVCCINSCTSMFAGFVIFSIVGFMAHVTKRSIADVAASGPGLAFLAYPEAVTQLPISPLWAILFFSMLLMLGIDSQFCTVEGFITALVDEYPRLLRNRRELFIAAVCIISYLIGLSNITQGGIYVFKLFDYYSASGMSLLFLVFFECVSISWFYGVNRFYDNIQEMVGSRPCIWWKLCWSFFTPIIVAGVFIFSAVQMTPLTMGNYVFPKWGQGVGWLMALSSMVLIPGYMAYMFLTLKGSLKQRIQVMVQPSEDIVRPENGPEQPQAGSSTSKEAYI
Protocol: hGAT1 stably expressing HEK293 cells were plated onto 96‐well microtiter plates at a density of 4.0 × 10^4 cells/well in DMEM and incubated overnight at 37°C in a 5% CO2 atmosphere. After washing the cells with assay buffer, E2730 (0.0128–1000 μM), tiagabine (Tokyo Chemical Industry; 0.000256–100 μM), or vehicle was added to the plate in the presence of 1% DMSO. After adding [^3H]GABA (0.01–500 μM), the plate was incubated for 5 minutes at 37°C in a 5% CO2 atmosphere. The radioactivity of the treated cells was assessed following the same method described above.

NS(=O)(=O)N[C@H]1c2c(F)cc(F)cc2CC1(F)F [E2730]
TD50 at 1 h [1]: 350 mg/kg
ED50 [2]: 17 mg/kg
ED50 (Fmr1 KO mice): 17.1 mg/kg
seizure occurrence in littermate WT (Scn1a+/+) mice (Scn1a+/- mice; 20 mg/kg, maximum temperature of 42.5°C): No seizures occurred
median threshold body temperature for generalized tonic-clonic seizures (Scn1a+/- mice; Scn1a+/- mice, 10 mg/kg oral): 41.2 °C
median threshold body temperature for generalized tonic-clonic seizures (Scn1a+/- mice; Scn1a+/- mice, 20 mg/kg oral): 42.4 °C
Minimum effective dose, hyperthermia-induced seizures (Scn1a+/- mice; Scn1a+/- mice, oral, footnote a: minimum effective dose): 10 mg/kg
IC50 (hGAT3): > 1000 µM
dependence of GAT1 inhibition on ambient GABA concentration (hGAT1): positively correlated with the ambient GABA concentration
